US7279286B2, “High-throughput-assay with high sensitivity for measuring of the activity of β-adrenergic receptor kinase and for determining the impact of test substances on such activity” (Sanofi-Aventis Deutschland GmbH, priority 2003, dated 2007)

Legend:
[1] = molecular target: T1, βARK (Homo sapiens, UniProt P25098, A211R/K465R/R422H); experiment: βARK inhibition AlphaScreen assay (phosphorylation of biotinylated CCR5 peptide); format: biochemical; conditions: assay validation, read-out: apparent Km (ATP dependence)
T1 sequence (P25098 1-689 A211R/R422H/K465R): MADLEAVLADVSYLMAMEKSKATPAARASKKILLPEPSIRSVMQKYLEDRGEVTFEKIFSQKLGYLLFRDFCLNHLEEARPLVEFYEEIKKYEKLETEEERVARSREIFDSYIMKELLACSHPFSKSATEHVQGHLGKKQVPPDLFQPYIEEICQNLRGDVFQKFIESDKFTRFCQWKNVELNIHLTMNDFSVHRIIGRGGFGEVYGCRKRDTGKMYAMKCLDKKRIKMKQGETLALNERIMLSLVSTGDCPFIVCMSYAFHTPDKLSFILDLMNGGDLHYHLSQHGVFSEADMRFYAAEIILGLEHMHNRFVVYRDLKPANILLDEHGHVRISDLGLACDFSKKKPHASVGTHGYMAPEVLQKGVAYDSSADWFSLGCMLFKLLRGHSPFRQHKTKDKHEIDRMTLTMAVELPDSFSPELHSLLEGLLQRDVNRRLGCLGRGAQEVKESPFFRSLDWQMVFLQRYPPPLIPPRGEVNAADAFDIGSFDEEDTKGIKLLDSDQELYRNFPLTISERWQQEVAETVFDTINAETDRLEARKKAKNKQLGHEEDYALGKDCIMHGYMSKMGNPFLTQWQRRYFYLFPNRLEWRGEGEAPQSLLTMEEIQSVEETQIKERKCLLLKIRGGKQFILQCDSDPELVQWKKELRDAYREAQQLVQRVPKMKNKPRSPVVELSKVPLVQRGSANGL
From the text: (§1) In the βARK inhibition experiment biotinylated hunian CC ehemokine receptor 5, herein abbreviated CCR5 peptide (Seq. ID No. 1) is phosphorylated by the kinase. The phosphorylated serine is recognized by a specific antibody which, in turn, is bound to protein A coupled acceptor beads. The biotinylated N-terminus of the CCR5 peptide is coupled to streptavidin-coated donor heads. Thus, in the absence of inhibitors an AlphaScreen signal is detected that decreases when the enzymatic activity in inhibited. […]
(§2) Percent-inhibition values are calculated as: […]

[2] = molecular target: T2, βARK (Homo sapiens, UniProt P25098); experiment: as above; format: biochemical; conditions: 0.5 μM βARK, 100 nM CCR5 peptide, 10 μM ATP, 120 min room temperature, read-out: IC50 (dose-response curve)
T2 sequence (P25098 1-689 A211R/R422H/K465R): T1 sequence (P25098 1-689 A211R/R422H/K465R)
From the text: as §1, §2

Row | IC50 [2] [nM] | Molecule | Km [1] [µM]
1 | – | Nc1ncnc2c1ncn2[C@@H]1O[C@H](COP(=O)(O)OP(=O)(O)OP(=O)(O)O)[C@@H](O)[C@H]1O [ATP] | 4
2 | 50 | heparin | –
